Laboratory results taken from ChEMBL document CHEMBL1147528, “(S)-N-[1-(4-cyclopropylmethyl-3,4-dihydro-2H-benzo[1,4]oxazin-6-yl)-ethyl]-3-(2-fluoro-phenyl)-acrylamide is a potent and efficacious KCNQ2 opener which inhibits induced hyperexcitability of rat hippocampal neurons” (Bioorg Med Chem Lett, 2004).

How the values were obtained:
[1] = biological target: Potassium voltage-gated channel subfamily KQT member 2 (Mus musculus) (UniProt Q9Z351); assay: Efficacy for mKCNQ2 expressed in HEK293 cells relative to reference compound; format: functional, cell-based
Sequence of Potassium voltage-gated channel subfamily KQT member 2 (Mus musculus) (Q9Z351 whole entry): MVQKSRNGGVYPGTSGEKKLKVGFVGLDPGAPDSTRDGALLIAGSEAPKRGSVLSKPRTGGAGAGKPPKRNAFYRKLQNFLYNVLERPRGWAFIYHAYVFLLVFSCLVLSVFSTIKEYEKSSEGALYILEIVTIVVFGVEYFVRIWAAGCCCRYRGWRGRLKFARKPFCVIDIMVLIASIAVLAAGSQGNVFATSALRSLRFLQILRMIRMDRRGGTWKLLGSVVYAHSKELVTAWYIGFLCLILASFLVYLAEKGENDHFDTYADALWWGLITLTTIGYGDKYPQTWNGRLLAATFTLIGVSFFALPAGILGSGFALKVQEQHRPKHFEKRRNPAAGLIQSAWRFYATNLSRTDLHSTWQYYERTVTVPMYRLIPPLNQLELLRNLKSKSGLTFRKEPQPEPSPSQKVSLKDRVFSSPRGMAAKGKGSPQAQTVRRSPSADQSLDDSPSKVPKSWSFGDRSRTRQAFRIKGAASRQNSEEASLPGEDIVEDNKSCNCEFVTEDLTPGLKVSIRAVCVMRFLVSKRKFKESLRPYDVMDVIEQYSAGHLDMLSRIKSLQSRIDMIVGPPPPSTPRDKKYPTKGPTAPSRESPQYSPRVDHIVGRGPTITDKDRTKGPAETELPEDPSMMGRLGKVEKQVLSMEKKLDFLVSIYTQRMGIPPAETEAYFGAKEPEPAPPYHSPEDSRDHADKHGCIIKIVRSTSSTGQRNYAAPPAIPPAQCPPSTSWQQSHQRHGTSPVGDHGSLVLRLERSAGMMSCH

[2] = biological target: Potassium voltage-gated channel subfamily KQT member 2 (Mus musculus, UniProt Q9Z351); assay: Whole-cell patch-clamp on recombinant mouse KCNQ2 channels expressed in HEK 293 cells at -40 mV; format: functional, cell-based, HEK293
Sequence of Potassium voltage-gated channel subfamily KQT member 2 (Q9Z351 whole entry): as above

| Compound | E/Eref [1] | EC50 [2] [nM] |
| --- | --- | --- |
| C[C@H](NC(=O)/C=C/c1ccccc1)c1cccc(N2CCOCC2)c1 | 1.4 | 3280 |
| C[C@H](NC(=O)/C=C/c1ccccc1F)c1ccc2c(c1)N(C)CCO2 | 1.8 | 940 |
| C[C@H](NC(=O)/C=C/c1ccccc1F)c1ccc2c(c1)NCCO2 | 1.2 | 2000 |
| CCOC(=O)Nc1ccc(NCc2ccc(F)cc2)cc1N [EZOGABINE] | 1.6 | 1300 |
| C[C@H](NC(=O)/C=C/c1ccccc1F)c1ccc2c(c1)N(CC1CC1)CCO2 | 1.83 | 60 |
| CCN1CCOc2ccc([C@H](C)NC(=O)/C=C/c3ccccc3F)cc21 | 2.1 | 200 |
